Several values for one entry are separate records, joined by “and”; a condition that tells them apart may be missing. Equal values may be shown once.
How the values were obtained:
Mus musculus = test: Lowest active dose for the inhibition of locomotor screen falloff test, ip; type: functional
Rattus norvegicus [1] = organism: Rattus norvegicus; test: Effective dose determined by catalepsy test in rat; type: functional
Rattus norvegicus [2] = organism: Rattus norvegicus; test: Effective dose determined by suppression of high base-line self-stimulation in adult male hooded rats; type: functional
Dopamine receptor = test: Inhibition of [3H]haloperidol binding to dopamine receptors in rat striatal membranes.
[3] = target: Dopamine receptor (Rattus norvegicus) (UniProt P25115+P19020+P30729+P18901+P61169); test: Inhibition of [3H]haloperidol binding to dopamine receptors in rat striatal membranes at 10e-8 M.; type: cell membranes; details: Membrane
Rattus norvegicus [4] = organism: Rattus norvegicus; test: Effective dose against [3H]haloperidol binding in rat striatal membranes; type: functional; details: Striatum, Membrane

SMILES	LAD (Mus musculus)	ED50 (Rattus norvegicus [1])	ED50 (Rattus norvegicus [2])	IC50 (Dopamine receptor)	inhibition [3]	ED50 (Rattus norvegicus [4])
OCCN1CCN(CCCN(c2ccc(F)cc2)c2ccc(F)cc2)CC1	>100 mg/kg	–	–	–	–	–
O=C1NCN(c2ccccc2)C12CCN(CCCC(c1ccc(F)cc1)c1ccc(F)cc1)CC2	<10 mg/kg	10.8 mg/kg	1.28 mg/kg	–	–	–
Oc1nc2ccccc2n1C1CCN(CCCN(c2ccccc2)c2cccc(Cl)c2)CC1	>100 mg/kg	–	–	–	–	–
O=C1NCN(c2ccccc2)C12CCN(CCN(c1ccc(F)cc1)c1ccc(F)cc1)CC2	100 mg/kg	–	–	–	–	–
O=C1NCN(c2ccccc2)C12CCN(CCCN(c1ccc(F)cc1)c1ccc(F)cc1)CC2	5 mg/kg	81.2 mg/kg	1.65 mg/kg	0.61 nM	–	–
Cc1cc2nc(O)n(C3CCN(CCCN(c4ccc(F)cc4)c4ccc(F)cc4)CC3)c2cc1C	30 mg/kg	–	> 16 mg/kg	–	–	–
O=C(c1ccc(Cl)cc1)C1CCN(CCCN(c2ccc(F)cc2)c2ccc(F)cc2)CC1	>100 mg/kg	–	–	–	–	–
O=C1NCN(c2ccccc2)C12CCN(CCCN(c1ccccc1)c1ccc(F)cc1)CC2	30 mg/kg	156 mg/kg	11.7 mg/kg	–	–	–
Oc1nc2ccccc2n1C1CCN(CCCN(c2ccccc2)c2ccccc2)CC1	30 mg/kg	–	13.2 mg/kg	–	–	–
Oc1nc2ccccc2n1C1CCN(CCCN(c2ccccc2)c2ccc(F)cc2)CC1	30 mg/kg	76 mg/kg	8.37 mg/kg	–	84%	–
Oc1nc2cc(Cl)c(Cl)cc2n1C1CCN(CCCN(c2ccc(F)cc2)c2ccc(F)cc2)CC1	>100 mg/kg	–	–	–	–	–
O=[N+]([O-])c1ccc(N(CCCN2CCC(n3c(O)nc4ccccc43)CC2)c2ccccc2)cc1	100 mg/kg	–	–	–	17%	–
CN1CCN(C2=Nc3cc(Cl)ccc3Nc3ccccc32)CC1 [CLOZAPINE]	10 mg/kg	133 mg/kg	14.3 mg/kg	–	–	–
Oc1nc2cc(Cl)ccc2n1C1CCN(CCCN(c2ccc(F)cc2)c2ccc(F)cc2)CC1	>100 mg/kg	–	–	–	–	–
O=C1NCN(c2ccccc2)C12CCN(CCCCN(c1ccc(F)cc1)c1ccc(F)cc1)CC2	>100 mg/kg	–	–	–	–	–
O=c1[nH]c2ccccc2n1C1CCN(CCCC(c2ccc(F)cc2)c2ccc(F)cc2)CC1 [PIMOZIDE]	<10 mg/kg and 30 mg/kg	–	–	–	–	–
OC1(c2ccc(Cl)cc2)CCN(CCCN(c2ccc(F)cc2)c2ccc(F)cc2)CC1	30 mg/kg	–	4.42 mg/kg	–	–	–
Fc1ccc(N(CCCN2CCC(n3c(S)nc4ccccc43)CC2)c2ccc(F)cc2)cc1	>100 mg/kg	–	–	–	–	–
COc1ccccc1N1CCN(CCCN(c2ccc(F)cc2)c2ccc(F)cc2)CC1	30 mg/kg	160 mg/kg	5.5 mg/kg	13 nM	–	–
O=C1NCN(c2ccccc2)C12CCN(CCCN(c1ccc(F)cc1)c1cccc(Cl)c1)CC2	30 mg/kg	289 mg/kg	12.7 mg/kg	–	–	–
Oc1nc2ccccc2n1C1CCN(CCCN(c2ccc(F)cc2)c2ccccc2F)CC1	30 mg/kg	156 mg/kg	11.3 mg/kg	–	92%	–
Fc1ccc(N(CCCN2CCN(c3ccccc3)CC2)c2ccc(F)cc2)cc1	100 mg/kg	–	–	–	–	–
Oc1nc2ccccc2n1C1=CCN(CCCN(c2ccc(F)cc2)c2ccc(F)cc2)CC1	30 mg/kg	105 mg/kg	5.55 mg/kg	–	–	0.32 nM

Reference: ChEMBL document CHEMBL1122995, “1-[3-(Diarylamino)propyl]piperidines and related compounds, potential antipsychotic agents with low cataleptogenic profiles” (J Med Chem, 1985)
